Laboratory results reported in ChEMBL document CHEMBL1201862, “PubChem BioAssay data set” (2004).
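All cell lines were grown in 96-well plates and treated with compound for 48 hours. The concentration for 50% growth inhibition is given as GI50.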 Calls of active or inactive are those of the source. Cut-off read from the data, not from the text of the source: active = GI50 up to about 1.1 µM and inactive = higher.

What was measured:
Assay in all cases: NCI tumour cell line growth inhibition, 48 h
UACC-257 = system: UACC-257
SK-MEL-28 = system: SK-MEL-28
SNB-75 = system: SNB-75
U-251 = system: U-251
SF-295 = system: SF-295
RPMI-8226 = system: RPMI-8226
IGROV-1 = system: IGROV-1
HT-29 = system: HT-29
LXFL 529 = system: LXFL 529
DLD-1 = system: DLD-1
CCRF-CEM = system: CCRF-CEM
Malme-3M = system: Malme-3M
A498 = system: A498
RXF 393 = system: RXF 393
DMS-273 = system: DMS-273
HOP-92 = system: HOP-92
NCI-H522 = system: NCI-H522
EKVX = system: EKVX

Measured: GI50

CC12CC[C@H](O)C(C)(C)[C@H]1CC[C@](C)(O)C2COc1ccc2ccc(=O)oc2c1 (some centres not stated)
inactive: UACC-257 > 100 µM | SK-MEL-28 > 100 µM | SNB-75 62.2 µM | U-251 > 100 µM | SF-295 > 100 µM | RPMI-8226 99.1 µM | IGROV-1 > 100 µM | HT-29 > 100 µM | LXFL 529 > 100 µM | DLD-1 > 100 µM | CCRF-CEM > 100 µM | Malme-3M 73.6 µM | A498 > 100 µM | RXF 393 > 100 µM | DMS-273 > 100 µM | HOP-92 > 100 µM | NCI-H522 > 100 µM | EKVX > 100 µM

CC(C)(C)c1cc(C(=O)O)c(C(c2ccccc2)c2ccccc2C(=O)O)c(C(=O)O)c1 (configuration not stated)
inactive: UACC-257 > 100 µM | SK-MEL-28 > 100 µM | SNB-75 21.7 µM | U-251 11.3 µM | SF-295 > 100 µM | HT-29 > 100 µM | LXFL 529 > 100 µM | DLD-1 > 100 µM | CCRF-CEM > 100 µM | Malme-3M > 100 µM | RXF 393 > 100 µM | DMS-273 > 100 µM | NCI-H522 2.52 µM | EKVX > 100 µM

Nc1ccc(C(=O)N/C(=C\c2cccc([N+](=O)[O-])c2)c2nc3ccccc3[nH]2)cc1
inactive: SK-MEL-28 > 92.9 µM | SNB-75 23.3 µM | U-251 41.4 µM | SF-295 28.4 µM | RPMI-8226 > 100 µM | IGROV-1 28.5 µM | HT-29 > 100 µM | LXFL 529 29.4 µM | DLD-1 66.8 µM | CCRF-CEM > 100 µM | Malme-3M 57.3 µM | A498 61.8 µM | RXF 393 24.9 µM | DMS-273 55.2 µM | HOP-92 23.6 µM | NCI-H522 36.6 µM | EKVX > 88.1 µM

CCOC(=O)C(=O)/C=C(\C)Nc1c(NC2OCC(OC(C)=O)C(OC(C)=O)C2OC(C)=O)nc(SC)[nH]c1=O (configuration not stated)
inactive: UACC-257 > 100 µM | SK-MEL-28 > 100 µM | SNB-75 > 100 µM | U-251 > 100 µM | SF-295 > 100 µM | RPMI-8226 > 100 µM | IGROV-1 > 100 µM | HT-29 > 100 µM | LXFL 529 > 100 µM | DLD-1 > 100 µM | CCRF-CEM > 100 µM | Malme-3M > 100 µM | A498 > 100 µM | RXF 393 > 100 µM | DMS-273 > 100 µM | HOP-92 > 100 µM | NCI-H522 > 100 µM | EKVX > 100 µM

OCC1OC(NO)C(O)C(O)C1O (configuration not stated)
inactive: UACC-257 > 100 µM | SK-MEL-28 > 100 µM | U-251 > 100 µM | SF-295 > 100 µM | RPMI-8226 > 100 µM | IGROV-1 > 100 µM | HT-29 > 100 µM | LXFL 529 > 100 µM | DLD-1 > 100 µM | CCRF-CEM > 100 µM | Malme-3M > 100 µM | A498 > 100 µM | RXF 393 > 100 µM | DMS-273 > 100 µM | HOP-92 > 100 µM | NCI-H522 > 100 µM

Cc1ccc(NC(=O)CC2SC(Nc3ccc(Cl)cc3)=NC2=O)cc1C (configuration not stated)
inactive: UACC-257 15.9 µM | SK-MEL-28 19.5 µM | SNB-75 17.7 µM | U-251 18.5 µM | SF-295 > 44 µM | RPMI-8226 6.47 µM | IGROV-1 > 46.3 µM | HT-29 18.2 µM | LXFL 529 19.5 µM | DLD-1 18.9 µM | CCRF-CEM 3.24 µM | Malme-3M 18.5 µM | A498 23 µM | RXF 393 17.1 µM | DMS-273 19.7 µM | HOP-92 14.4 µM | NCI-H522 7.85 µM | EKVX 17.5 µM

CCc1cccc(C)c1N1C(=O)C(=O)C(c2nc3ccccc3o2)C(=O)C1=O
inactive: UACC-257 > 100 µM | SK-MEL-28 > 100 µM | SNB-75 45.7 µM | U-251 > 100 µM | SF-295 > 100 µM | RPMI-8226 > 100 µM | IGROV-1 > 100 µM | HT-29 > 100 µM | LXFL 529 > 100 µM | DLD-1 > 100 µM | CCRF-CEM > 100 µM | Malme-3M > 100 µM | A498 > 100 µM | DMS-273 > 100 µM | HOP-92 > 100 µM | NCI-H522 > 100 µM | EKVX > 100 µM

COC(=O)C(=O)C1(CCC(C)=O)c2ccccc2-c2c(C)ccc(C)c21 (configuration not stated)
inactive: UACC-257 33 µM | SK-MEL-28 > 100 µM | SNB-75 53 µM | U-251 41.8 µM | SF-295 81.7 µM | RPMI-8226 26.2 µM | IGROV-1 57.8 µM | HT-29 32.7 µM | LXFL 529 37.8 µM | DLD-1 50.1 µM | CCRF-CEM 37.1 µM | Malme-3M 40.4 µM | A498 55.7 µM | RXF 393 32.1 µM | DMS-273 31.6 µM | NCI-H522 33.3 µM | EKVX 31.4 µM

CCCN/C(N)=N/C#N
inactive: UACC-257 > 100 µM | SK-MEL-28 > 100 µM | SNB-75 > 100 µM | U-251 46.7 µM | SF-295 > 100 µM | RPMI-8226 > 100 µM | IGROV-1 > 100 µM | HT-29 30.8 µM | LXFL 529 76.6 µM | DLD-1 66.8 µM | Malme-3M > 100 µM | A498 67.6 µM | RXF 393 > 100 µM | DMS-273 62.1 µM | HOP-92 > 100 µM | NCI-H522 > 100 µM | EKVX > 100 µM

Cc1ccc2[nH]c(Sc3c([N+](=O)[O-])ncn3C)nc2c1
inactive: UACC-257 12.6 µM | SK-MEL-28 37.4 µM | SNB-75 25.3 µM | U-251 22.9 µM | SF-295 > 100 µM | RPMI-8226 25.1 µM | IGROV-1 22.1 µM | HT-29 29.6 µM | LXFL 529 > 10 µM | DLD-1 20.4 µM | Malme-3M 15.8 µM | A498 25.1 µM | RXF 393 16.1 µM | DMS-273 12.2 µM | HOP-92 16.1 µM | EKVX 26.1 µM

C[Si](C)(C)CN1C(=O)c2ccccc2C1(O)c1ccccc1 (configuration not stated)
inactive: UACC-257 57.3 µM | SK-MEL-28 > 100 µM | SNB-75 84.7 µM | U-251 > 100 µM | SF-295 64.4 µM | IGROV-1 99.5 µM | HT-29 87.9 µM | LXFL 529 93.1 µM | DLD-1 > 100 µM | CCRF-CEM 66.4 µM | Malme-3M > 100 µM | A498 > 100 µM | RXF 393 75.2 µM | DMS-273 56.6 µM | HOP-92 44.6 µM | NCI-H522 33.5 µM | EKVX 91 µM

CCCCCCCCCCCCCP(=O)(OC)OC
inactive: UACC-257 19.4 µM | SK-MEL-28 24.3 µM | SNB-75 21.2 µM | U-251 18.5 µM | SF-295 21.5 µM | RPMI-8226 24.3 µM | IGROV-1 19.3 µM | HT-29 18.4 µM | LXFL 529 19.1 µM | DLD-1 16.1 µM | CCRF-CEM 20.8 µM | Malme-3M 22.5 µM | RXF 393 31.8 µM | DMS-273 19.1 µM | HOP-92 16.9 µM | NCI-H522 13.6 µM | EKVX 19.4 µM
